From ChEMBL document CHEMBL4680317, “In vitro and in vivo effects of inhibitors on actin and myosin” (Bioorg Med Chem, 2021)
Active and inactive are the calls of the source. The rule behind the calls is not given here.

Key:
Oryctolagus cuniculus [1] = organism: Oryctolagus cuniculus; experiment: Inhibition of rabbit muscle G-actin polymerization assessed as polymerized G-actin level at 25 uM incubated for 15 mins by spectrophotometric analysis (reference value: 100 %); format: tissue-based; parameters: scale not given: the % may be the effect or the level left; conditions: Muscle tissue
[2] = Cardiotoxicity in medaka embryo post hatching 24 hrs assessed as reduction in heart beat at 10 uM measured after 1 hr; format: toxicity; conditions: oryzias latipes
MDA-MB-231 [3] = experiment: Induction of cell morphological changes in human MDA-MB-231 cells assessed as membrane blebbing at 2 uM measured after 30 mins by inverted microscopy; format: functional, cell-based
MDA-MB-231 [4] = experiment: Antimigratory activity against human MDA-MB-231 cells assessed as cell migration at 5 uM by light microscopy relative to control; format: functional
Oryctolagus cuniculus [5] = organism: Oryctolagus cuniculus; experiment: Inhibition of rabbit muscle F-actin depolymerization at 50 to 100 uM incubated for 15 mins by spectrophotometric analysis; format: tissue-based; conditions: Muscle tissue, dose 50-100 µM
MDA-MB-231 [6] = experiment: Antimigratory activity against human MDA-MB-231 cells assessed as minimum effective concentration by light microscopy; format: functional
[7] = Cardiotoxicity in medaka embryo post hatching 24 hrs assessed as reduction in heart beat at 17.5 uM measured after 1 hr; format: toxicity; conditions: oryzias latipes
MDA-MB-231 [8] = experiment: Cytotoxicity against human MDA-MB-231 cells assessed as reduction in cell viability incubated for 4 hrs by neutral red uptake assay; format: cell-based; conditions: mda-mb-231, 4 h
MDA-MB-231 [9] = experiment: Antimigratory activity against human MDA-MB-231 cells assessed as cell migration at 10 uM by light microscopy relative to control; format: functional
MDA-MB-231 [10] = experiment: Induction of cell morphological changes in human MDA-MB-231 cells assessed as membrane blebbing at 500 nM measured after 40 sec by inverted microscopy; format: functional, cell-based
[11] = Cardiotoxicity in medaka embryo post hatching 24 hrs assessed as reduction in heart beat at 25 uM measured after 1 hr; format: toxicity; conditions: oryzias latipes
Oryctolagus cuniculus [12] = organism: Oryctolagus cuniculus; experiment: Inhibition of rabbit muscle F-actin depolymerization incubated for 15 mins by spectrophotometric analysis; format: tissue-based; conditions: Muscle tissue, dose 25-100 µM
MDA-MB-231 [13] = experiment: Induction of cell morphological changes in human MDA-MB-231 cells assessed as membrane blebbing by inverted microscopy; format: functional, cell-based
MDA-MB-231 [14] = experiment: Antimigratory activity against human MDA-MB-231 cells assessed as cell migration at 2.5 uM by light microscopy relative to control; format: functional
MDA-MB-231 [15] = experiment: Antimigratory activity against human MDA-MB-231 cells assessed as cell migration by light microscopy; format: functional, cell-based
[16] = target: Myosin light chain kinase 2, skeletal/cardiac muscle (Oryctolagus cuniculus) (UniProt P07313); experiment: Inhibition of rabbit skeletal muscle myosin-2 ATPase incubated for 20 mins followed by ATP addition and measured after 20 mins; format: tissue-based; conditions: Skeletal muscle tissue, time 40.0 min
Sequence of Myosin light chain kinase 2, skeletal/cardiac muscle (Oryctolagus cuniculus) (P07313 whole entry): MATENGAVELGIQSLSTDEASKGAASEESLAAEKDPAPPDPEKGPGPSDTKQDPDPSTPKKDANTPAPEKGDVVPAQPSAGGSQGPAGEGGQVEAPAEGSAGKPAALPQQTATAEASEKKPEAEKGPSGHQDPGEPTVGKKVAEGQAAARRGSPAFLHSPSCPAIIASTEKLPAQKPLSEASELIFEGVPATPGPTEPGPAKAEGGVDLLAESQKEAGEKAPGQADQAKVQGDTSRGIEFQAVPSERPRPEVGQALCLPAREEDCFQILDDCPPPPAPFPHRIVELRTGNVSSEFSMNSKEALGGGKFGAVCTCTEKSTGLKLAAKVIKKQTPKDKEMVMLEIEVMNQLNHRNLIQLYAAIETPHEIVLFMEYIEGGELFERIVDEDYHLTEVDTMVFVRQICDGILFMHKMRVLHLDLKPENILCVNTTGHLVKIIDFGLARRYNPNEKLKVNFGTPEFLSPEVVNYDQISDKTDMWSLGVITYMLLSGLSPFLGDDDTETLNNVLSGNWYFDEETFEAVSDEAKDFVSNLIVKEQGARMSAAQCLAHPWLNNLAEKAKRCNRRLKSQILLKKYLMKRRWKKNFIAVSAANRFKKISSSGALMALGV

[17] = Cardiotoxicity in medaka embryo post hatching 24 hrs assessed as reduction in heart beat at 1.25 uM measured after 1 hr; format: toxicity; conditions: oryzias latipes

Row | SMILES | Activity (Oryctolagus cuniculus [1]) | Activity [2] | Activity (MDA-MB-231 [3]) | Activity (MDA-MB-231 [4]) | inhibition (Oryctolagus cuniculus [5]) | LED (MDA-MB-231 [6]) | Activity [7] | Activity (MDA-MB-231 [8]) | Activity (MDA-MB-231 [9]) | Activity (MDA-MB-231 [10]) | Activity [11] | inhibition (Oryctolagus cuniculus [12]) | Activity (MDA-MB-231 [13]) | Activity (MDA-MB-231 [14]) | inhibition (MDA-MB-231 [15]) | inhibition [16] | Activity [17]
1 | Cc1ccc2c(c1)C(=O)[C@]1(O)CCN(c3ccccc3)C1=N2 | 78.7% | Toxic | inactive | 136.6% | Active | 5 µM | Non-Toxic | – | – | – | – | – | – | – | – | – | –
2 | C=C1[C@@H](C)[C@H]2[C@H](Cc3ccccc3)NC(=O)[C@]23OC(=O)/C=C/[C@H](O)CCC[C@@H](C)C/C=C/[C@H]3[C@@H]1O [CYTOCHALASIN B] | 43.5% | Non-Toxic | – | – | Active | – | – | Toxic | 8.2% | Active | – | – | – | – | – | – | –
3 | O=c1c(O)c(-c2ccc(O)cc2)oc2cc(O)cc(O)c12 [KAEMPFEROL] | 71.8% | – | – | – | – | 2.5 µM | – | – | – | – | Non-Toxic | Dose-dependent effect | inactive | 70% | – | – | –
4 | Oc1c(Cl)cc(Cl)cc1-c1[nH]c(Cl)c(Cl)c1Cl [PENTACHLOROPSEUDILIN] | 38.4% | – | – | – | – | 1 µM | – | Toxic | – | – | – | – | – | 62.6% | Dose-dependent effect | Dose-dependent effect | Toxic
5 | Oc1c(Br)cc(Br)cc1-c1[nH]c(Br)c(Br)c1Br [PENTABROMOPSEUDILIN] | 104% | – | – | – | – | 1 µM | – | Toxic | – | – | – | – | inactive | 67% | Dose-dependent effect | – | Toxic
6 | Oc1cc(O)c2c(c1)O[C@H](c1cc(O)c(O)c(O)c1)[C@H](O)C2 [EPIGALLOCATECHIN] | 118% | – | – | – | – | – | – | – | – | – | Non-Toxic | – | inactive | inactive | – | – | –
7 | O=c1c(O)c(-c2ccc(O)c(O)c2)oc2cc(O)cc(O)c12 [QUERCETIN] | 74.5% | – | – | – | – | – | – | – | – | – | Non-Toxic | Dose-dependent effect | inactive | inactive | – | – | –
